Results on 25 compounds are retold here after patent publication US8461151B2, “Aryl-/heteroaryl-cyclohexenyl-tetraazabenzo[e]azulenes” (Hoffmann-La Roche Inc., priority 2010, dated 2013).

Counter-ions that a name gives are not always drawn. Like-named read-outs stand apart in the source and are kept apart here.

The assay deals with T1, human V1a receptor (Homo sapiens, UniProt P37288).
T1 construct: expressed in transfected cells; host or cells: HEK293 cells, transiently transfected; membranes
T1 sequence (P37288 whole entry): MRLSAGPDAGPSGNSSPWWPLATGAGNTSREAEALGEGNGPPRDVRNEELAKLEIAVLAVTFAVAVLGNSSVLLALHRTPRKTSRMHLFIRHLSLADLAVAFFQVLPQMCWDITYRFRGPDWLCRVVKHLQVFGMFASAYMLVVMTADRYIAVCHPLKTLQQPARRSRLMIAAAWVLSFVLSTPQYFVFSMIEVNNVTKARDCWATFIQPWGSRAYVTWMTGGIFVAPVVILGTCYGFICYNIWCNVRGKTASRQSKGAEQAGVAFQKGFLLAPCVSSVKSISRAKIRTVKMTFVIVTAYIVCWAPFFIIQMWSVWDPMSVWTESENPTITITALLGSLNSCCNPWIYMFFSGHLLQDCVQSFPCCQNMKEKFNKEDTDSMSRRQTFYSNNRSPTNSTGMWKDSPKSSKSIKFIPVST
Kind of assay: human V1a receptor binding studies (3H-Vasopressin SPA, membranes of transfected HEK293 cells). Particulars: 3H-Vasopressin displacement, HEK293 cell membranes, SPA beads, 1 h at room temperature. The protocol: The human V1a receptor was cloned by RT-PCR from total human liver RNA. The coding sequence was subcloned in an expression vector after sequencing to confirm the identity of the amplified sequence. […] Cell membranes were prepared from HEK293-cells transiently transfected with the expression vector and grown in 20 liter fermenters with the following protocol.
50 g of cells are resuspended in 30 ml freshly prepared ice cold Lysis buffer (50 mM HEPES, 1 mM EDTA, 10 mM magnesium dichloride adjusted to pH=7.4+ complete cocktail of protease inhibitor (Roche Diagnostics)). Homogenized with Polytron for 1 min and sonicated on ice for 2×2 minutes at 80% intensity (Vibracell sonicator). The preparation is centrifuged 20 min at 500 g at 4° C., the pellet is discarded and the supernatant centrifuged 1 hour at 43,000 g at 4° C. (19,000 rpm). The pellet is resuspended in 12.5 ml Lysis buffer+12.5 ml sucrose 20% and homogenized using a Polytron for 1-2 min. The protein concentration is determined by the Bradford method and aliquots are stored at −80° C. until use. For binding studies 60 mg Yttrium silicate SPA beads (Amersham®) are mixed with an aliquot of membrane in binding buffer (50 mM Tris, 120 mM sodium chloride, 5 mM potassium chloride, 2 mM calcium dichloride, 10 mM magnesium dichloride) for 15 minutes with mixing. 50 μl of bead/membrane mixture is then added to each well of a 96 well plate, followed by 50 μl of 4 nM 3H-Vasopressin (American Radiolabeled Chemicals). For total binding measurement 100 μl of binding buffer are added to the respective wells, for non-specific binding 100 μl of 8.4 mM cold vasopressin and for compound testing 100 μl of a serial dilution of each compound in 2% dimethyl sulfoxide. The plate is incubated 1 h at room temperature, centrifuged 1 min at 1000 g and counted on a Packard Top-Count. Non-specific binding counts are subtracted from each well and data is normalized to the maximum specific binding set at 100%. To calculate an IC50 the curve is fitted using a non-linear regression model (XLfit) and the Ki is calculated using the Cheng-Prussoff equation.

Where [1] appears, read: Ki by Cheng-Prussoff from IC50, read-out: pKi (hV1a) (converted).

In the case of `Fc1cccc(C2=CCC(c3nnc4n3-c3ccc(Cl)cc3CNC4)CC2)c1Cl` (racemic) [Example 12, (RS)-8-Chloro-1-[4-(2-chloro-3-fluoro-phenyl)-cyclohex-3-enyl]-5,6-dihydro-4H-2,3,5,10b-tetraaza-benzo[e]azulene hydrochloride], the Ki under setting [1] was 28.8 nM.

Regarding `CN1Cc2cc(Cl)ccc2-n2c(nnc2C2CC=C(c3ccccn3)CC2)C1` (single isomer, unassigned; (-)) [Example 23, (−)-8-Chloro-5-methyl-1-(-4-pyridin-2-yl-cyclohex-3-enyl)-5,6-dihydro-4H-2,3,5,10b-tetraaza-benzo[e]azulene], the Ki under setting [1] was 7.59 nM.

As to `CN1Cc2cc(Cl)ccc2-n2c(nnc2C2CC=C(c3ncccc3F)CC2)C1` (single isomer, unassigned; (-)) [Example 31, (−)-8-Chloro-1-[-4-(3-fluoro-pyridin-2-yl)-cyclohex-3-enyl]-5-methyl-5,6-dihydro-4H-2,3,5,10b-tetraaza-benzo[e]azulene], the Ki under setting [1] was 8.13 nM.

Take `Fc1cccnc1C1=CCC(c2nnc3n2-c2ccc(Cl)cc2CNC3)CC1` (single isomer, unassigned; (-)) [Example 30, (−)-8-Chloro-1-[-4-(3-fluoro-pyridin-2-yl)-cyclohex-3-enyl]-5,6-dihydro-4H-2,3,5,10b-tetraaza-benzo[e]azulene]: the Ki under setting [1] was 42.7 nM.

Consider `CC(C)(C)OC(=O)N1Cc2cc(Cl)ccc2-n2c(nnc2C2CC=C(c3cccc(C#N)c3)CC2)C1` (racemic) [Example 20, (RS)-8-Chloro-1-[4-(3-cyano-phenyl)-cyclohex-3-enyl]-4H,6H-2,3,5,10b-tetraaza-benzo[e]azulene-5-carboxylic acid tert-butyl ester], for which the Ki under setting [1] is 46.8 nM.

On to `CN1Cc2cc(Cl)ccc2-n2c(nnc2C2CC=C(c3cc(F)ccn3)CC2)C1` (racemic) [Example 27, (RS)-8-Chloro-1-[4-(4-fluoro-pyridin-2-yl)-cyclohex-3-enyl]-5-methyl-5,6-dihydro-4H-2,3,5,10b-tetraaza-benzo[e]azulene], for which the Ki under setting [1] was 10.5 nM.

With `CC(C)(C)OC(=O)N1Cc2cc(Cl)ccc2-n2c(nnc2C2CC=C(c3ncccc3F)CC2)C1` (single isomer, unassigned; (-)) [Example 28, (−)-8-Chloro-1-[-4-(3-fluoro-pyridin-2-yl)-cyclohex-3-enyl]-4H,6H-2,3,5,10b-tetraaza-benzo[e]azulene-5-carboxylic acid tert-butyl ester], the Ki under setting [1] was 1.91 nM.

In the case of `Clc1ccc2c(c1)CNCc1nnc(C3CC=C(c4ccccc4)CC3)n1-2` (racemic) [Example 1, (RS)-8-Chloro-1-(4-phenyl-cyclohex-3-enyl)-5,6-dihydro-4H-2,3,5,10b-tetraaza-benzo[e]azulene hydrochloride], under setting [1], the Ki was 10 nM.

As to `CN1Cc2cc(Cl)ccc2-n2c(nnc2C2CC=C(c3cccc(C#N)c3)CC2)C1` (racemic) [Example 22, (RS)-3-[4-(8-Chloro-5-methyl-5,6-dihydro-4H-2,3,5,10b-tetraaza-benzo[e]azulen-1-yl)-cyclohex-1-enyl]benzonitrile], the Ki under setting [1] was 56.2 nM.

On to `Cc1nc(C2=CCC(c3nnc4n3-c3ccc(Cl)cc3CNC4)CC2)cs1` (racemic) [Example 35, (RS)-8-Chloro-1-[4-(2-methyl-thiazol-4-yl)-cyclohex-3-enyl]-5,6-dihydro-4H-2,3,5,10b-tetraaza-benzo[e]azulene], for which, under setting [1], the Ki is 170 nM.

With `CC(C)(C)OC(=O)N1Cc2cc(Cl)ccc2-n2c(nnc2C2CC=C(c3cccc(F)c3Cl)CC2)C1` (racemic) [Example 11, (RS)-8-Chloro-1-[4-(2-chloro-3-fluoro-phenyl)-cyclohex-3-enyl]-4H,6H-2,3,5,10b-tetraaza-benzo[e]azulene-5-carboxylic acid tert-butyl ester], the Ki under setting [1] was 8.13 nM.

Consider `Cc1ccccc1C1=CCC(c2nnc3n2-c2ccc(Cl)cc2CNC3)CC1` (racemic) [Example 3, (RS)-8-Chloro-1-(4-o-tolyl-cyclohex-3-enyl)-5,6-dihydro-4H-2,3,5,10b-tetraaza-benzo[e]azulene hydrochloride], for which the Ki under setting [1] is 5.13 nM.

Consider `Cc1nc(C2=CCC(c3nnc4n3-c3ccc(Cl)cc3CN(C(=O)OC(C)(C)C)C4)CC2)cs1` (racemic) [Example 34, (RS)-8-Chloro-1-[4-(2-methyl-thiazol-4-yl)-cyclohex-3-enyl]-4H,6H-2,3,5,10b-tetraaza-benzo[e]azulene-5-carboxylic acid tert-butyl ester], for which the Ki under setting [1] was 3.72 nM.

For the compound `CN1Cc2cc(Cl)ccc2-n2c(nnc2C2CC=C(c3ccccn3)CC2)C1` (single isomer, unassigned; (+)) [Example 24, (+)-8-Chloro-5-methyl-1-(-4-pyridin-2-yl-cyclohex-3-enyl)-5,6-dihydro-4H-2,3,5,10b-tetraaza-benzo[e]azulene], under setting [1], the Ki was 2.88 nM.

With `CN1Cc2cc(Cl)ccc2-n2c(nnc2C2CC=C(c3ncccc3F)CC2)C1` (single isomer, unassigned; (+)) [Example 33, (+)-8-Chloro-1-[-4-(3-fluoro-pyridin-2-yl)-cyclohex-3-enyl]-5-methyl-5,6-dihydro-4H-2,3,5,10b-tetraaza-benzo[e]azulene], under setting [1], the Ki was 5.13 nM.

As to `CC(C)(C)OC(=O)N1Cc2cc(Cl)ccc2-n2c(nnc2C2CC=C(c3cccc4ccccc34)CC2)C1` (racemic) [Example 14, (RS)-8-Chloro-1-(4-naphthalen-1-yl-cyclohex-3-enyl)-4H,6H-2,3,5,10b-tetraaza-benzo[e]azulene-5-carboxylic acid tert-butyl ester], the Ki under setting [1] was 11 nM.

In the case of `COc1ccc(F)cc1C1=CCC(c2nnc3n2-c2ccc(Cl)cc2CN(C)C3)CC1` (racemic) [Example 19, (RS)-8-Chloro-1-[4-(5-fluoro-2-methoxy-phenyl)-cyclohex-3-enyl]-5-methyl-5,6-dihydro-4H-2,3,5,10b-tetraaza-benzo[e]azulene], the Ki under setting [1] was 10 nM.

Regarding `CC(C)(C)OC(=O)N1Cc2cc(Cl)ccc2-n2c(nnc2C2CC=C(c3ccc(F)cc3)CC2)C1` (racemic) [Example 5, (RS)-8-Chloro-1-[4-(4-fluoro-phenyl)-cyclohex-3-enyl]-4H,6H-2,3,5,10b-tetraaza-benzo[e]azulene-5-carboxylic acid tert-butyl ester], the Ki under setting [1] was 8.32 nM.

Take `CN1Cc2cc(Cl)ccc2-n2c(nnc2C2CC=C(c3ccc(F)cc3)CC2)C1` (racemic) [Example 7, (RS)-8-Chloro-1-[4-(4-fluoro-phenyl)-cyclohex-3-enyl]-5-methyl-5,6-dihydro-4H-2,3,5,10b-tetraaza-benzo[e]azulene]: under setting [1], the Ki is 6.76 nM.

As to `CN1Cc2cc(Cl)ccc2-n2c(nnc2C2CC=C(c3ccccc3)CC2)C1` (racemic) [Example 2, (RS)-8-Chloro-5-methyl-1-(4-phenyl-cyclohex-3-enyl)-5,6-dihydro-4H-2,3,5,10b-tetraaza-benzo[e]azulene], where the note is “pKi (hV1a), Ki by Cheng-Prussoff from IC50”, the Ki was 2.69 nM.

On to `N#Cc1cccc(C2=CCC(c3nnc4n3-c3ccc(Cl)cc3CNC4)CC2)c1` (racemic) [Example 21, (RS)-3-[4-(8-Chloro-5,6-dihydro-4H-2,3,5,10b-tetraaza-benzo[e]azulen-1-yl)-cyclohex-1-enyl]benzonitrile hydrochloride], for which, under setting [1], the Ki was 427 nM.

Consider `CN1Cc2cc(Cl)ccc2-n2c(nnc2C2CC=C(c3cccc4ccccc34)CC2)C1` (racemic) [Example 16, (RS)-8-Chloro-5-methyl-1-(4-naphthalen-1-yl-cyclohex-3-enyl)-5,6-dihydro-4H-2,3,5,10b-tetraaza-benzo[e]azulene], for which the Ki under setting [1] is 19.1 nM.

Take `CC(C)(C)OC(=O)N1Cc2cc(Cl)ccc2-n2c(nnc2C2CC=C(c3cccc(OC(F)(F)F)c3)CC2)C1` (racemic) [Example 8, (RS)-8-Chloro-1-[4-(3-trifluoromethoxy-phenyl)-cyclohex-3-enyl]-4H,6H-2,3,5,10b-tetraaza-benzo[e]azulene-5-carboxylic acid tert-butyl ester]: the Ki under setting [1] was 72.4 nM.

As for `CN1Cc2cc(Cl)ccc2-n2c(nnc2C2CC=C(c3cccc(OC(F)(F)F)c3)CC2)C1` (racemic) [Example 10, (RS)-8-Chloro-5-methyl-1-[4-(3-trifluoromethoxy-phenyl)-cyclohex-3-enyl]-5,6-dihydro-4H-2,3,5,10b-tetraaza-benzo[e]azulene], the Ki under setting [1] was 58.9 nM.

`CN1Cc2cc(Cl)ccc2-n2c(nnc2C2CC=C(c3cccc(F)c3Cl)CC2)C1` (racemic) [Example 13, (RS)-8-Chloro-1-[4-(2-chloro-3-fluoro-phenyl)-cyclohex-3-enyl]-5-methyl-5,6-dihydro-4H-2,3,5,10b-tetraaza-benzo[e]azulene]: the Ki under setting [1] was 5.75 nM.
